Legend:
SW480 = test: Antiproliferative activity against human SW480 cells assessed as cell growth inhibition after 72 hrs by MTT assay; assay type: functional
A549 = test: Antiproliferative activity against human A549 cells assessed as cell growth inhibition after 72 hrs by MTT assay; assay type: functional
MCF7 = test: Antiproliferative activity against human MCF7 cells assessed as cell growth inhibition after 72 hrs by MTT assay; assay type: functional
[1] = target: Cyclin-Y/Cyclin-dependent kinase 16 (Homo sapiens) (UniProt Q00536+Q8ND76); test: Inhibition of CDK16/Cyclin Y (unknown origin) at 500 nM by ADP-Glo kinase assay relative to control; assay type: protein-complex assay
[2] = target: CDK3/Cyclin E (Homo sapiens) (UniProt P24864+Q00526); test: Inhibition of CDK3/Cyclin E1 (unknown origin) at 500 nM by ADP-Glo kinase assay relative to control; assay type: protein-complex assay
CDK3/Cyclin E (Homo sapiens), sequence (P24864 whole entry, looked up): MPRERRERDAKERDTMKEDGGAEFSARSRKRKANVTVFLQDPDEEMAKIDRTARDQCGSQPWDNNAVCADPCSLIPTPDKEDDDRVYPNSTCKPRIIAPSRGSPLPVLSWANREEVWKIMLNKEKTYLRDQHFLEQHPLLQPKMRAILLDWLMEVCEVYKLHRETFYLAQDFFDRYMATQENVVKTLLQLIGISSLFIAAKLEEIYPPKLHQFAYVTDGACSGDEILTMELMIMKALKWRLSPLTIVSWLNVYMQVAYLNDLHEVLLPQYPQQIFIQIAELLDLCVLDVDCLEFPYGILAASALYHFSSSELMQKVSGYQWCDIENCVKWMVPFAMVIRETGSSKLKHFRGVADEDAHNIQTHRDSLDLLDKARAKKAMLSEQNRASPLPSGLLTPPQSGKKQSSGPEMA
CDK3/Cyclin E (Homo sapiens), sequence (Q00526 whole entry, looked up): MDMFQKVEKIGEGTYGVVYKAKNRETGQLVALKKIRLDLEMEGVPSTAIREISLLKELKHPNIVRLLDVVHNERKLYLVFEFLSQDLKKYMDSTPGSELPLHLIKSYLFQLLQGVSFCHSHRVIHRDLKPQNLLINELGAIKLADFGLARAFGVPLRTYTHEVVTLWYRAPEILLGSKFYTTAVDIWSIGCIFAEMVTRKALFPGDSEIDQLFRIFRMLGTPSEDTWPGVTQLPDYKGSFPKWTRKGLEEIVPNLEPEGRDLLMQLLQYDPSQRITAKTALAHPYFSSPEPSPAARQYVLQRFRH

[3] = target: Cyclin-dependent kinase 5/CDK5 activator 1 (Homo sapiens) (UniProt Q00535+Q15078); test: Inhibition of CDK5/p25 NCK (unknown origin) at 500 nM by ADP-Glo kinase assay relative to control; assay type: protein-complex assay
Cyclin-dependent kinase 5/CDK5 activator 1 (Homo sapiens), sequence (Q00535 whole entry): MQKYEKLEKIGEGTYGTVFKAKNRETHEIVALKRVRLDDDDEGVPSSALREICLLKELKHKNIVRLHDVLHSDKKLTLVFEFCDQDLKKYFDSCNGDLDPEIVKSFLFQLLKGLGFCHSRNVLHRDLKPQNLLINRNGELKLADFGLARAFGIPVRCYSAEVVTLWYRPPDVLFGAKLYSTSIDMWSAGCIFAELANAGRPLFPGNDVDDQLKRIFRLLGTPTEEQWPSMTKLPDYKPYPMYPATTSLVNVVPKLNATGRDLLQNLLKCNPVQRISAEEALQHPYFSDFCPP
Cyclin-dependent kinase 5/CDK5 activator 1 (Homo sapiens), sequence (Q15078 99-307 partner limits assumed): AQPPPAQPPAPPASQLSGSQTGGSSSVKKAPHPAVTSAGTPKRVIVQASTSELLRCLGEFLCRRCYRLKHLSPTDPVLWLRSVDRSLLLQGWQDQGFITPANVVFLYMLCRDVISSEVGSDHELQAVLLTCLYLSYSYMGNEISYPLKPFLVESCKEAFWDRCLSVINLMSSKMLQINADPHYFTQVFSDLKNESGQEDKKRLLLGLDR

[4] = target: CDK7/Cyclin H/MNAT1 (Homo sapiens) (UniProt P51946+P50613+P51948); test: Inhibition of CDK7/Cyclin H/MAT1 (unknown origin) at 500 nM by ADP-Glo kinase assay relative to control; assay type: protein-complex assay
[5] = target: Cyclin-dependent kinase 4/cyclin D1 (Homo sapiens) (UniProt P11802+P24385); test: Inhibition of CDK4/Cyclin D1 (unknown origin) at 500 nM by ADP-Glo kinase assay relative to control; assay type: protein-complex assay
[6] = target: CDK6/cyclin D1 (Homo sapiens) (UniProt P24385+Q00534); test: Inhibition of CDK6/Cyclin D1 (unknown origin) at 500 nM by ADP-Glo kinase assay relative to control; assay type: protein-complex assay
[7] = target: CDK6/cyclin D3 (Homo sapiens) (UniProt P30281+Q00534); test: Inhibition of CDK6/Cyclin D3 (unknown origin) at 500 nM by ADP-Glo kinase assay relative to control; assay type: protein-complex assay
[8] = target: Cyclin-C/Cyclin-dependent kinase 19 (Homo sapiens) (UniProt Q9BWU1+P24863); test: Inhibition of CDK19/Cyclin C (unknown origin) at 500 nM by ADP-Glo kinase assay relative to control; assay type: protein-complex assay
HCT-116 [9] = test: Inhibition of cell migration in human HCT-116 cells after 48 hrs by Wound healing scratch assay; assay type: functional, cell-based; settings: dose 2-18 nM
HCT-116 [10] = test: Inhibition of colony formation in human HCT-116 cells treated for 24 hrs followed by replaced with fresh culture media for 10 days by Colony formation assay; assay type: functional, cell-based; settings: dose 2-18 nM
HCT-116 [11] = test: Induction of apoptosis in human HCT-116 cells assessed as viable cells at 10 nM measured after 48 hrs by Annexin V-FITC/PI assay (reference value: 88.5%); assay type: functional; settings: read-out: Activity
HCT-116 [12] = test: Induction of apoptosis in human HCT-116 cells assessed as early apoptotic cells at 10 nM measured after 48 hrs by Annexin V-FITC/PI assay (reference value: 3.16%); assay type: functional
HCT-116 [13] = test: Induction of apoptosis in human HCT-116 cells assessed as late apoptotic cells at 10 nM measured after 48 hrs by Annexin V-FITC/PI assay (reference value: 6.06%); assay type: functional
HCT-116 [14] = test: Induction of apoptosis in human HCT-116 cells assessed as necrotic cells at 10 nM measured after 48 hrs by Annexin V-FITC/PI assay (reference value: 2.31%); assay type: functional
HCT-116 [15] = test: Induction of apoptosis in human HCT-116 cells assessed as early apoptotic cells at 20 nM measured after 48 hrs by Annexin V-FITC/PI assay (reference value: 3.16%); assay type: functional
HCT-116 [16] = test: Induction of apoptosis in human HCT-116 cells assessed as late apoptotic cells at 20 nM measured after 48 hrs by Annexin V-FITC/PI assay (reference value: 6.06%); assay type: functional
HCT-116 [17] = test: Induction of apoptosis in human HCT-116 cells assessed as necrotic cells at 20 nM measured after 48 hrs by Annexin V-FITC/PI assay (reference value: 2.31%); assay type: functional
HCT-116 [18] = test: Cell cycle arrest in human HCT-116 cells assessed as accumulation of cells at G0-G1 phase at 10 nM measured after 48 hrs by flow cytometry (reference value: 62.18%); assay type: functional
HCT-116 [19] = test: Cell cycle arrest in human HCT-116 cells assessed as accumulation of cells at S phase at 20 nM measured after 48 hrs by flow cytometry (reference value: 31.43%); assay type: functional
[20] = Acute toxicity in po dosed Kunming mouse assessed as survival measured for 2 weeks; assay type: organism-based; settings: in vivo
[21] = Acute toxicity in Kunming mouse assessed as survival at 30 mg/kg, po measured for 2 weeks; assay type: organism-based; settings: in vivo
[22] = Acute toxicity in Kunming mouse assessed as survival at 105 mg/kg, po measured for 2 weeks; assay type: organism-based; settings: in vivo
[23] = Acute toxicity in Kunming mouse assessed as body weight change at 20 to 105 mg/kg, po measured for 2 weeks; assay type: organism-based; settings: in vivo, 336 h, dose 20-105 mg/kg
[24] = Tmax in Sprague-Dawley rat at 2 mg/kg, iv; assay type: ADME, organism-based; settings: in vivo
[25] = AUC (0 to t) in Sprague-Dawley rat at 2 mg/kg, iv; assay type: ADME, organism-based; parameters: dose 2 mg/kg, route iv; settings: in vivo
[26] = AUC (0 to t) in Sprague-Dawley rat at 20 mg/kg, po; assay type: ADME, organism-based; parameters: dose 20 mg/kg, route po; settings: in vivo
[27] = AUC (0 to infinity) in Sprague-Dawley rat at 2 mg/kg, iv; assay type: ADME, organism-based; parameters: dose 2 mg/kg, route iv; settings: in vivo
[28] = AUC (0 to infinity) in Sprague-Dawley rat at 20 mg/kg, po; assay type: ADME, organism-based; parameters: dose 20 mg/kg, route po; settings: in vivo
[29] = Clearance in Sprague-Dawley rat at 2 mg/kg, iv; assay type: ADME, organism-based; settings: in vivo
[30] = Volume of distribution at steady state in Sprague-Dawley rat at 2 mg/kg, iv; assay type: ADME, organism-based; settings: in vivo, read-out: Vdss
[31] = Oral bioavailability in Sprague-Dawley rat at 20 mg/kg; assay type: ADME, organism-based; settings: in vivo
HCT-116 [32] = test: Antitumor activity against human HCT-116 cells xenografted in BALB/cA-nu mouse tumor model assessed as tumor volume growth inhibition at 10 mg/kg, intragastric administration for 21 days relative to control; assay type: functional; settings: HCT-116, 504 h, route ig, time 21 day, read-out: GI
[33] = Toxicity in BALB/cA-nu mouse xenografted with human HCT116 cells assessed as body weight changes at 10 mg/kg, intragastric administration for 21 days; assay type: organism-based, HCT-116; settings: in vivo, po, 504 h, time 21 day
[34] = Toxicity in BALB/cA-nu mouse xenografted with human HCT116 cells assessed as liver injury by measuring AST level at 10 mg/kg, intragastric administration for 21 days; assay type: organism-based, HCT-116; settings: in vivo, po, 504 h, time 21 day
CDK9/cyclin T1 = CDK9/cyclin T1 (Homo sapiens, UniProt P50750)
CDK9/cyclin T1, sequence (O60563 whole entry): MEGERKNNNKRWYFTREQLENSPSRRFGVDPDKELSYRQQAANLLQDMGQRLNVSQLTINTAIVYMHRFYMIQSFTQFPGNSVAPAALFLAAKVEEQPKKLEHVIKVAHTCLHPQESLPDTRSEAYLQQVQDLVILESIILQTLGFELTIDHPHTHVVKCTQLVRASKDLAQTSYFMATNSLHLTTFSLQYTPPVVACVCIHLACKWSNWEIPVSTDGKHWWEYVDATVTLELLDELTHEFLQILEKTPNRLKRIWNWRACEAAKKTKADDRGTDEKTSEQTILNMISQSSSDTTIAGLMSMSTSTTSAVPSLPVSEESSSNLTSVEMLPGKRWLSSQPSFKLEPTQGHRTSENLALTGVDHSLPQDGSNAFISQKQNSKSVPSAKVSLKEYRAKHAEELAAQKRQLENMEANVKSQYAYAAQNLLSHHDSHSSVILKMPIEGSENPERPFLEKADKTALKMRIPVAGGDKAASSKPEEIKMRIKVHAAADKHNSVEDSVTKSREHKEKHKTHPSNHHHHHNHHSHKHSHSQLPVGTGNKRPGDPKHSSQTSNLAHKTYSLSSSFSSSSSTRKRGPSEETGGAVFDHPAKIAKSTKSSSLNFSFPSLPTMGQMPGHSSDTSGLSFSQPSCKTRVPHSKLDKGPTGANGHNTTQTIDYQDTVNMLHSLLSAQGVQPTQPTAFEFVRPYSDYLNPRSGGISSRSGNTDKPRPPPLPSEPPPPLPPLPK
CDK9/cyclin T1, sequence (P50750 whole entry): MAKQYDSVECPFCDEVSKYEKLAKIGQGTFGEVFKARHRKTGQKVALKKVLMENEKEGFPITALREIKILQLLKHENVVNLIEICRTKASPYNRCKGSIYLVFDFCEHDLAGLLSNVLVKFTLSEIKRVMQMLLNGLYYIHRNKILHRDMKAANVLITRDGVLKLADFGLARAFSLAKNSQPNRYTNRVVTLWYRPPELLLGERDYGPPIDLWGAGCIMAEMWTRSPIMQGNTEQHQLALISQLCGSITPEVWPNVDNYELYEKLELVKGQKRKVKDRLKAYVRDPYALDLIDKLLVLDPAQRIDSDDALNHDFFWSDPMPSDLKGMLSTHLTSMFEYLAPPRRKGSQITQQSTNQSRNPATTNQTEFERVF
Description: Inhibition of CDK9/CyclinT1 (unknown origin) by ADP-Glo kinase assay

[35] = target: Cyclin-dependent kinase 1/cyclin B1 (Homo sapiens) (UniProt P06493+P14635); settings: dose 500.0 nM
Cyclin-dependent kinase 1/cyclin B1 (Homo sapiens), sequence (P06493 whole entry, looked up): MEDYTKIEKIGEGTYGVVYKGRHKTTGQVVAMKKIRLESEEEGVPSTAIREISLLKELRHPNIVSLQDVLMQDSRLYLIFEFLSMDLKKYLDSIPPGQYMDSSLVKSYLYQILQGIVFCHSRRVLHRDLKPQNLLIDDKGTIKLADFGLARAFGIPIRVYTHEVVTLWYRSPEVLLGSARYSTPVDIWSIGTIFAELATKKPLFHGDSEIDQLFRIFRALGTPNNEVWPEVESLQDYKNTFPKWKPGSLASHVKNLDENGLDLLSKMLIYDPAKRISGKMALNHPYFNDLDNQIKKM
Cyclin-dependent kinase 1/cyclin B1 (Homo sapiens), sequence (P14635 whole entry, looked up): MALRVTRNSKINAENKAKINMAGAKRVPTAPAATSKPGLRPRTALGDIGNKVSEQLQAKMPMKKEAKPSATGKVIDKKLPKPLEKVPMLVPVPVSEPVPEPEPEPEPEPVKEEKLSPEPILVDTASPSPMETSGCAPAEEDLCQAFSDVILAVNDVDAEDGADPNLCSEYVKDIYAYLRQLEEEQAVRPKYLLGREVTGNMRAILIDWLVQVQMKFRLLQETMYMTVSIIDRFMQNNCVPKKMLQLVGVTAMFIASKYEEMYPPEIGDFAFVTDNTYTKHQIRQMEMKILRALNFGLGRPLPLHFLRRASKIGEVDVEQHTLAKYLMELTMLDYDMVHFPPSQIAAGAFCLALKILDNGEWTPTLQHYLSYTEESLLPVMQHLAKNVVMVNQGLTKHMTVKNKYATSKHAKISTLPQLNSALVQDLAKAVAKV
Description: Inhibition of CDK1/Cyclin B1 (unknown origin) at 500 nM by ADP-Glo kinase assay relative to control

[36] = target: CDK1/Cyclin E (Homo sapiens) (UniProt P06493+P24864); settings: dose 500.0 nM
CDK1/Cyclin E (Homo sapiens), sequence (P06493 whole entry, looked up): as the sequence (P06493 whole entry, looked up) above
CDK1/Cyclin E (Homo sapiens), sequence (P24864 whole entry, looked up): as the sequence (P24864 whole entry, looked up) above
Description: Inhibition of CDK1/Cyclin E1 (unknown origin) at 500 nM by ADP-Glo kinase assay relative to control

Structure (SMILES): Cl.N[C@H]1CCN(c2c3c(nc4ccc(-c5ccnc(NC(=O)C6CC6)n5)cc24)CCCCC3)C1
- GI50 (SW480): 13 nM
- GI50 (A549): 9 nM
- GI50 (MCF7): 6 nM
- inhibition [1]: 76.1%
- inhibition [2]: 65.5%
- inhibition [3]: 64.5%
- inhibition [4]: 60.4%
- inhibition [5]: 31.6%
- inhibition [6]: 22.1%
- inhibition [7]: 16.6%
- inhibition [8]: 12.9%
- inhibition (HCT-116 [9]): Dose-Dependent Effect
- inhibition (HCT-116 [10]): Dose-Dependent Effect
- viability at 0.01 µM (HCT-116 [11]): 74%
- Activity (HCT-116 [12]): 16.3%
- Activity (HCT-116 [13]): ~7.47%
- Activity (HCT-116 [14]): 1.48%
- Activity (HCT-116 [15]): 32.6%
- Activity (HCT-116 [16]): 13.6%
- Activity (HCT-116 [17]): 1.23%
- Activity (HCT-116 [18]): 46.65%
- Activity (HCT-116 [19]): 49.38%
- LD50 at 336 h [20]: 104 mg/kg
- survival at 336 h [21]: 100%
- survival at 336 h [22]: 50%
- Activity [23]: Non-Toxic
- Tmax [24]: 4.98 min
- AUC(0-t) [25]: 110 ng·h/mL
- AUC(0-t) [26]: 302 ng·h/mL
- AUC(0-inf) [27]: 115 ng·h/mL
- AUC(0-inf) [28]: 316 ng·h/mL
- clearance [29]: 312 mL/min/kg
- Vd [30]: 12.6 L/kg
- bioavailability [31]: 27.5%
- inhibition in vivo at 10 mg/kg (HCT-116 [32]): 47.7%
- Activity [33]: Non-Toxic
- Activity [34]: Non-Toxic
- IC50 (CDK9/cyclin T1): 2.41 nM
- inhibition [35]: 77.3%
- inhibition [36]: 48.6%
